Assay [1] has as its system recombinant HMPV CAN97-83 (MPV-GFP1). The experiment in a line: HMPV antiviral assay (MPV-GFP1 eGFP fluorescence in Vero E6 cells). Format: cell-based. The following applies: human metapneumovirus, Vero C1008, 120 h, read-out: HMPV EC50. An outline of the steps:
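Vero E6 cells in serum-free OptiMEM with 0.5 μg/mL TPCK-trypsin infected with eGFP-expressing HMPV CAN97-83 (MPV-GFP1) at MOI 0.05. 8-point […] ½-step dilutions from 8 or 2 μM, 0.5% DMSO, 5 days at 32 °C. eGFP fluorescence normalized to infected untreated wells; EC50 from four-parameter logistic fit.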

The subject of assay [2] is genotype A, "Long" strain RSV. The experiment in a line: RSV-A assay (CPE, ATPlite readout in Hep-2 cells). The following applies: human respiratory syncytial virus, HEp-2, Hep-2 cells, genotype A "Long" strain RSV, MOI 0.1; read-out: Human RSV-A (“Long” strain) EC50. It counts as cell-based. The essentials: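 Hep-2 cells (8,000/well) received 2-fold serial compound dilutions in duplicate and RSV Long strain at MOI 0.1. After 5 days' incubation, cell health was read as ATP by ATPlite luminescence, with virus-only and uninfected controls defining max and minimum CPE; EC50 reported.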

Among the data in patent publication US11505558B1, “Antiviral heterocyclic compounds” (Enanta Pharmaceuticals, Inc., priority 2019, dated 2022) are EC50 values, retold here.

Structures are written as SMILES.

In general, EC50 refers to the concentration that produces a half-maximal response.

For `CN(C)C(=O)COc1cc(C(=O)NC[C@](O)(c2cc3c(c(-c4ccc(F)cc4)n2)OC[C@]3(C)C(N)=O)C(F)(F)F)cc2cccnc12` [Example 373], the EC50 in assay [1] was greater than 500 nM; in assay [2], less than 200 nM.
On to `CCCNC(=O)COc1cc(C(=O)NC[C@](O)(c2cc3c(c(-c4ccc(F)cc4)n2)OC[C@]3(C)C(N)=O)C(F)(F)F)cc2cccnc12` [Example 374], for which the EC50 in assay [1] is less than 500 nM; in assay [2], less than 200 nM.
`CC(C)(Oc1cc(C(=O)NC[C@](O)(c2cc3c(c(-c4ccc(F)cc4)n2)OC[C@]3(C)C(N)=O)C(F)(F)F)cc2cccnc12)C(N)=O` [Example 380]: the half-maximal effective concentration (EC50) in assay [1] was greater than 500 nM; in assay [2], less than 200 nM.
Taken in the same sequence, the figures for `C[C@]1(C(N)=O)COc2c1cc([C@@](O)(CNC(=O)c1cc(NCC(N)=O)c3ncccc3c1)C(F)(F)F)nc2-c1ccc(F)cc1` [Example 384] were greater than 500 nM and less than 200 nM.
Taken in the same sequence, the figures for `C[C@]1(C(N)=O)COc2c1cc([C@@](O)(CNC(=O)c1cc(Oc3cnccn3)c3ncccc3c1)C(F)(F)F)nc2-c1ccc(F)cc1` [Example 387] were greater than 500 nM and less than 200 nM.
For `C[C@]1(C(N)=O)COc2c1cc([C@@](O)(CNC(=O)c1cc(Oc3ccncc3)c3ncccc3c1)C(F)(F)F)nc2-c1ccc(F)cc1` [Example 388], in that order: greater than 500 nM and less than 200 nM.
With `C[C@]1(C(N)=O)COc2c1cc([C@@](O)(CNC(=O)c1cc(OCc3ncco3)c3ncccc3c1)C(F)(F)F)nc2-c1ccc(F)cc1` [Example 390], the half-maximal effective concentration (EC50) was greater than 500 nM in assay [1] and less than 200 nM in assay [2].
For `CC(=O)Nc1cc(C(=O)NC[C@](O)(c2cc3c(c(-c4ccc(F)cc4)n2)OC[C@]3(C)C(N)=O)C(F)(F)F)cc2cccnc12` [Example 393], in that order: less than 500 nM and less than 200 nM.
For `Cc1nc(C(=O)Nc2cc(C(=O)NC[C@](O)(c3cc4c(c(-c5ccc(F)cc5)n3)OC[C@]4(C)C(N)=O)C(F)(F)F)cc3cccnc23)co1` [Example 397], in that order: greater than 500 nM and less than 200 nM.
Consider `C[C@]1(C(N)=O)COc2c1cc([C@@](O)(CNC(=O)c1cc(NC(=O)c3ncco3)c3ncccc3c1)C(F)(F)F)nc2-c1ccc(F)cc1` [Example 398], for which the values for the concentration for a half-maximal effect (EC50) in assay [1] and in assay [2] were less than 500 nM and less than 200 nM, respectively.
For `C[C@]1(C(N)=O)COc2c1cc([C@@](O)(CNC(=O)c1cc(OC3CC3)c3nc(CO)ccc3c1)C(F)(F)F)nc2-c1ccc(F)cc1` [Example 406], in that order: greater than 500 nM and less than 200 nM.
`C[C@]1(C(N)=O)COc2c1cc([C@@](O)(CNC(=O)c1cc(NC(N)=O)c3ncccc3c1)C(F)(F)F)nc2-c1ccc(F)cc1` [Example 408]: the EC50 in assay [1] was greater than 500 nM; in assay [2], less than 200 nM.
In the case of `CC1(NC(=O)Nc2cc(C(=O)NC[C@](O)(c3cc4c(c(-c5ccc(F)cc5)n3)OC[C@]4(C)C(N)=O)C(F)(F)F)cc3cccnc23)CC1` [Example 411], the EC50 in assay [1] was less than 500 nM; in assay [2], less than 200 nM.
Regarding `Cc1cnc2c(NC(=O)C3CC3)cc(C(=O)NC[C@](O)(c3cc4c(c(-c5ccc(F)cc5)n3)OC[C@]4(C)C(N)=O)C(F)(F)F)cc2c1` [Example 416], the EC50 in assay [1] was greater than 500 nM; in assay [2], less than 200 nM.
For `Cc1cnc2c(NC(=O)NC3CC3)cc(C(=O)NC[C@](O)(c3cc4c(c(-c5ccc(F)cc5)n3)OC[C@]4(C)C(N)=O)C(F)(F)F)cc2c1` [Example 417], in that order: less than 500 nM and less than 200 nM.
With `Cc1cnc2c(NC(=O)c3coc(C)n3)cc(C(=O)NC[C@](O)(c3cc4c(c(-c5ccc(F)cc5)n3)OC[C@]4(C)C(N)=O)C(F)(F)F)cc2c1` [Example 418], the EC50 in assay [1] is less than 500 nM; in assay [2] it was less than 200 nM.
Consider `Cc1nc2ccc(C(=O)NC[C@](O)(c3cc4c(c(-c5ccc(F)cc5)n3)OC[C@]4(C)C(N)=O)C(F)(F)F)cc2o1` [Example 424], for which the EC50 in assay [1] is less than 500 nM; in assay [2], less than 200 nM.
Taken in the same sequence, the figures for `C[C@]1(C(N)=O)COc2c1cc([C@@](O)(CNC(=O)c1ccc3nc(N)sc3c1)C(F)(F)F)nc2-c1ccc(F)cc1` [Example 429] were greater than 500 nM and less than 200 nM.
As for `Cc1nc2ccc(C(=O)NC[C@](O)(c3cc4c(c(-c5ccc(F)cc5)n3)OC[C@]4(C)C(N)=O)C(F)(F)F)cc2s1` [Example 430], the concentration for a half-maximal effect (EC50) in assay [1] was less than 500 nM; in assay [2], less than 200 nM.
Regarding `COc1cc(C(=O)NC[C@](O)(c2cc3c(c(-c4ccc(F)cc4)n2)OC[C@]3(C)C(N)=O)C(F)(F)F)cc2sc(N)nc12` [Example 431], the EC50 in assay [1] was less than 500 nM; in assay [2], less than 200 nM.
Taken in the same sequence, the figures for `COc1cc(C(=O)NC[C@](O)(c2cc3c(c(-c4ccc(F)c(Cl)c4)n2)OC[C@]3(C)C(N)=O)C(F)(F)F)cc2sc(N)nc12` [Example 433] were less than 500 nM and less than 200 nM.
On to `COc1nc2c(OC(C)C)cc(C(=O)NC[C@](O)(c3cc4c(c(-c5ccc(F)cc5)n3)OC[C@]4(C)C(N)=O)C(F)(F)F)cc2s1` [Example 444], for which the EC50 in assay [1] is greater than 500 nM; in assay [2], less than 200 nM.
For the molecule `COc1nc2c(OC)cc(C(=O)NC[C@](O)(c3cc4c(c(-c5ccc(F)cc5)n3)OC[C@]4(C)C(N)=O)C(F)(F)F)cc2s1` [Example 445], the EC50 in assay [1] is less than 500 nM; in assay [2], less than 200 nM.
For `COc1cc(C(=O)NC[C@](O)(c2cc3c(c(-c4ccc(F)cc4)n2)OC[C@]3(C)C(=O)NC2(C#N)CC2)C(F)(F)F)cc2cccnc12` [Example 451], in that order: less than 500 nM and less than 200 nM.
Taken in the same sequence, the figures for `CC(C)(O)[C@H](F)CNC(=O)[C@@]1(C)COc2c1cc([C@@](O)(CNC(=O)c1cc(OC3CC3)c3ncccc3c1)C(F)(F)F)nc2-c1ccc(F)cc1` [Example 459] were greater than 500 nM and less than 200 nM.
Taken in the same sequence, the figures for `C[C@]1(C(=O)NCCOC(N)=O)COc2c1cc([C@@](O)(CNC(=O)c1cc(OC3CC3)c3ncccc3c1)C(F)(F)F)nc2-c1ccc(F)cc1` [Example 460] were greater than 500 nM and less than 200 nM.
On to `C[C@]1(C(=O)NCCCN)COc2c1cc([C@@](O)(CNC(=O)c1cc(OC3CC3)c3ncccc3c1)C(F)(F)F)nc2-c1ccc(F)cc1` [Example 464], for which the EC50 is greater than 500 nM in assay [1] and less than 200 nM in assay [2].
For `C[C@]1(C(=O)NCCO)COc2c1cc([C@@](O)(CNC(=O)c1cc(OC3CC3)c3ncccc3c1)C(F)(F)F)nc2-c1ccc(F)cc1` [Example 465], in that order: less than 500 nM and less than 200 nM.
In the case of `C[C@]1(C(=O)N[C@H]2C[C@@H](O)C2)COc2c1cc([C@@](O)(CNC(=O)c1cc(OC3CC3)c3ncccc3c1)C(F)(F)F)nc2-c1ccc(F)cc1` [Example 466], the EC50 in assay [1] is less than 500 nM; in assay [2], less than 200 nM.
For `C[C@]1(C(=O)NC2CC(O)C2)COc2c1cc([C@@](O)(CNC(=O)c1cc(OC3CC3)c3ncccc3c1)C(F)(F)F)nc2-c1ccc(F)cc1` (some centres unmarked) [Example 467], in that order: less than 500 nM and less than 200 nM.
For the molecule `CNC(=O)CNC(=O)[C@@]1(C)COc2c1cc([C@@](O)(CNC(=O)c1cc(OC3CC3)c3ncccc3c1)C(F)(F)F)nc2-c1ccc(F)cc1` [Example 473], the results for the EC50 in assay [1] and in assay [2] were greater than 500 nM and less than 200 nM, respectively.
`C[C@]1(C(=O)NCc2ccco2)COc2c1cc([C@@](O)(CNC(=O)c1cc(OC3CC3)c3ncccc3c1)C(F)(F)F)nc2-c1ccc(F)cc1` [Example 475]: the values for the concentration giving a half-maximal response (EC50) in assay [1] and in assay [2] were less than 500 nM and less than 200 nM, respectively.
`C[C@]1(C(=O)NCCC(N)=O)COc2c1cc([C@@](O)(CNC(=O)c1cc(OC3CC3)c3ncccc3c1)C(F)(F)F)nc2-c1ccc(F)cc1` [Example 477]: the concentration giving a half-maximal response (EC50) is greater than 500 nM in assay [1] and less than 200 nM in assay [2].
For `C[C@]1(C(=O)NCCCNC(N)=O)COc2c1cc([C@@](O)(CNC(=O)c1cc(OC3CC3)c3ncccc3c1)C(F)(F)F)nc2-c1ccc(F)cc1` [Example 479], in that order: greater than 500 nM and less than 200 nM.
For `CC(C)(CO)NC(=O)[C@@]1(C)COc2c1cc([C@@](O)(CNC(=O)c1cc(OC3CC3)c3ncccc3c1)C(F)(F)F)nc2-c1ccc(F)cc1` [Example 482], in that order: greater than 500 nM and less than 200 nM.
For `CC(C)(O)CNC(=O)[C@@]1(C)COc2c1cc([C@@](O)(CNC(=O)c1cc(OC3CC3)c3ncccc3c1)C(F)(F)F)nc2-c1ccc(F)cc1` [Example 484], the half-maximal effective concentration (EC50) in assay [1] was less than 500 nM; in assay [2], less than 200 nM.
Consider `C[C@]1(C(=O)NCCCO)COc2c1cc([C@@](O)(CNC(=O)c1cc(OC3CC3)c3ncccc3c1)C(F)(F)F)nc2-c1ccc(F)cc1` [Example 485], for which the EC50 is less than 500 nM in assay [1] and less than 200 nM in assay [2].
For `C[C@]1(C(=O)NC[C@@H](O)CO)COc2c1cc([C@@](O)(CNC(=O)c1cc(OC3CC3)c3ncccc3c1)C(F)(F)F)nc2-c1ccc(F)cc1` [Example 492], in that order: greater than 500 nM and less than 200 nM.
Taken in the same sequence, the figures for `C[C@]1(C(=O)NC[C@H](O)CO)COc2c1cc([C@@](O)(CNC(=O)c1cc(OC3CC3)c3ncccc3c1)C(F)(F)F)nc2-c1ccc(F)cc1` [Example 493] were greater than 500 nM and less than 200 nM.
Taken in the same sequence, the figures for `CC(C)(O)CNC(=O)[C@@]1(C)COc2c1cc([C@@](O)(CNC(=O)c1ccc3nc(N)sc3c1)C(F)(F)F)nc2-c1ccc(F)cc1` [Example 497] were greater than 500 nM and less than 200 nM.
